The source made the active and inactive calls.
Experiments:
[1] = fluconazole-exposed Candida albicans growth modulators – fluorescence, retest, confirmation (AID 2467); assay type: functional, cell-based
[2] = Luminescence-based counterscreen assay for KLF5 inhibitors: dose response cell-based high throughput screening assay to identify cytotoxic compounds using the IEC-6 intestinal epithelial cell line. [Related pubchem assays: 1700 (Primary screen.), 1834 (Confirmation screen.), 1858 (Summary AID.), 1905 (Counterscreen.)]; assay type: functional
[3] = target: Nonstructural protein 1 (Influenza A virus, UniProt Q194T2); assay type: functional, Influenza A virus (A/California/07/2009(H1N1))
Chain of Nonstructural protein 1 (Q194T2 whole entry): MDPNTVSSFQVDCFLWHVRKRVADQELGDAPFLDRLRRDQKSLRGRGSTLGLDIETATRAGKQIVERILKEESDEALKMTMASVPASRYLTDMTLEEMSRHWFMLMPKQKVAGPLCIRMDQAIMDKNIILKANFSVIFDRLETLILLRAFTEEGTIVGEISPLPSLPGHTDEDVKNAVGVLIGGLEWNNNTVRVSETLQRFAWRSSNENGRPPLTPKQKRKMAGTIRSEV

[4] = target: T1, Serine/threonine-protein phosphatase (Candida dubliniensis (strain CD36 / CBS 7987 / NCPF 3949 / NRRLY-17841) (Yeast), UniProt B9W6M3); experiment: blockers of CaCl2-induced CDRE-lacZ signaling – S. cerevisiae, luminescence, secondary, dose response (AID 2388); assay type: functional, cell-based;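 further: yeast reporter cells carrying a calcineurin-responsive lacZ construct stimulated with calcium chloride; luminescent beta-galactosidase reporter signal in whole cells rather than isolated phosphatase activity; potency for inhibition where a drop in reporter signal means calcineurin blockade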
T1 sequence (B9W6M3 whole entry): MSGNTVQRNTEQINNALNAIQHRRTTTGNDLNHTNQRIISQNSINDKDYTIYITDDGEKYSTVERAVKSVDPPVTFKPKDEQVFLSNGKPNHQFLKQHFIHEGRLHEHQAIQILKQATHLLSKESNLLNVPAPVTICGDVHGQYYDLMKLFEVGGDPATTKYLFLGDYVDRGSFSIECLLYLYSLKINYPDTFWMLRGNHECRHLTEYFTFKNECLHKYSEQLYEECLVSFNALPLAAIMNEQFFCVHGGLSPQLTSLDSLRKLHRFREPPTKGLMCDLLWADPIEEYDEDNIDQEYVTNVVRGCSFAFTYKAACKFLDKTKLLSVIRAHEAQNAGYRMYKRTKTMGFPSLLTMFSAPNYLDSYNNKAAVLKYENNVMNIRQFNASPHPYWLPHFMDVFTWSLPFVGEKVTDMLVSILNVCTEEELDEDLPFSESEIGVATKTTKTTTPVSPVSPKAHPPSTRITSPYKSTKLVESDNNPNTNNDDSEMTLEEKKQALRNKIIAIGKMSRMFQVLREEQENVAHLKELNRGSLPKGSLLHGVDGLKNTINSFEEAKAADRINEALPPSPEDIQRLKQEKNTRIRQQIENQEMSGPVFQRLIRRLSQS

[5] = target: ATP-dependent molecular chaperone HSP82 (Candida albicans (strain WO-1) (Yeast), UniProt C4YTQ8); experiment: steroid-induced GRE reporter decrease in yeast – S. cerevisiae, luminescence, Hsp90 inhibitor project, dose response (AID 2400); assay type: functional, cell-based;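 further: beta-galactosidase luminescence from glucocorticoid response element reporter as proxy for Hsp90 function; inhibitor potency where signal loss means Hsp90 inhibition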
Chain of ATP-dependent molecular chaperone HSP82 (C4YTQ8 whole entry): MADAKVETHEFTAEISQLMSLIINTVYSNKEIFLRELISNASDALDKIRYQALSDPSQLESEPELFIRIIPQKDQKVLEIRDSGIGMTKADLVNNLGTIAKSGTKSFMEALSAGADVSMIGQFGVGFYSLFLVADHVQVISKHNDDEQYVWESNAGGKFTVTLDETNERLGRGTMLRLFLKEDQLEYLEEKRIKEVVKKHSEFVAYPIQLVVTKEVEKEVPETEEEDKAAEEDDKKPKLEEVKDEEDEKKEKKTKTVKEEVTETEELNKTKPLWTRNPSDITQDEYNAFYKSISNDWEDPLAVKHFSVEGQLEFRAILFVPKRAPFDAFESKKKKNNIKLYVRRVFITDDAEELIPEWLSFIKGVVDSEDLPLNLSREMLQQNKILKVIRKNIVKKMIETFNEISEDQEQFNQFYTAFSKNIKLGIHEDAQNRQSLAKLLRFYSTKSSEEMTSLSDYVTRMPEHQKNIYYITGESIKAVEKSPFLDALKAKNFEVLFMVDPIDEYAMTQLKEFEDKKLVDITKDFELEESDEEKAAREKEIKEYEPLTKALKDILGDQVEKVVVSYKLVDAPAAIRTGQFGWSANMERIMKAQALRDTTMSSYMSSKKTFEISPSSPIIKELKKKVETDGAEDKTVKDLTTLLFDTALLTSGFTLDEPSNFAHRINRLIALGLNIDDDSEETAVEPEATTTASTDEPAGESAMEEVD

[6] = NIH-3T3 fibroblast cytotoxicity, dose response, cytotoxicity control, cell-based, fluorescence, Alamar Blue, secondary assay (AID 2327); assay type: functional;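 further: NIH-3T3 mouse fibroblasts cultured with fluconazole at 8 µg/mL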
[7] = test system: Streptococcus; experiment: GAS UMAA2166 growth inhibition – luminescence, BacTiterGlo, counter-screen for streptokinase expression inhibitor project, dose response (AID 1915); assay type: functional, organism-based;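 further: potency for reduction of bacterial viability or growth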
[8] = target: Paired box protein Pax-8 (Homo sapiens, UniProt Q06710); experiment: PAX8 transcriptional activity inhibition in RMG-I – RMG-I cells, luciferase, cherry-pick, dose response (AID 687027); assay type: functional, cell-based;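 further: luciferase reporter driven by Pax8 target thyroperoxidase promoter measured by SteadyGlo luminescence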
[9] = test system: INS1; experiment: INS-1E survival protection against cytokine death – cell-based, luminescence, retest, dose response (AID 449756); assay type: functional; settings: Rattus norvegicus;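 further: cell death triggered by IL-1 beta plus TNF-alpha plus IFN-gamma mixture; protective hits raise ATP signal compared with cytokine alone wells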
[10] = test system: Streptococcus sp. 'group A'; experiment: Streptococcus pyogenes SK(-)GAS viability under kanamycin – luminescence, BacTiterGlo, confirmation, counter-screen for streptokinase expression inhibitor project, dose response (AID 1900); assay type: functional, organism-based
[11] = target: T2, Alkaline phosphatase, tissue-nonspecific isozyme (Homo sapiens, UniProt P05186)
T2 sequence (P05186 whole entry): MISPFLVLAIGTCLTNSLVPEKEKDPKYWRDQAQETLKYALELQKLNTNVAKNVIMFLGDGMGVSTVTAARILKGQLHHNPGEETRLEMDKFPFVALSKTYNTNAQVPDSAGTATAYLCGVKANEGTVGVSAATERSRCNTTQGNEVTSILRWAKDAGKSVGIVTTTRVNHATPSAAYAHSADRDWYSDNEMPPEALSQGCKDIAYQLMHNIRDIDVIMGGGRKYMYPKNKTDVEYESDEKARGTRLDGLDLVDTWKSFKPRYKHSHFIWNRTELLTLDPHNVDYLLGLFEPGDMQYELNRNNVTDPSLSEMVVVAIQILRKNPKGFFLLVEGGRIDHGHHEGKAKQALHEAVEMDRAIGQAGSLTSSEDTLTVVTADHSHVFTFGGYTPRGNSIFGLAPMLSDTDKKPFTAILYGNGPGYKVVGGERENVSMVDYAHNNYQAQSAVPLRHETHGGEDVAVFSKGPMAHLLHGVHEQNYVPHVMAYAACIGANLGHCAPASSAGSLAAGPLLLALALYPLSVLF

[12] = target: Ion channel NompC (Danio rerio, UniProt Q7T1G6); experiment: Fluorescence counterscreen assay for TRPML3 agonists: dose response cell-based high-throughput screening assay to identify agonists of the transient receptor potential channel N1 (TRPN1). [Related pubchem assays: 1526, 1424, 1448 ]; assay type: functional
Chain of Ion channel NompC (Q7T1G6 whole entry): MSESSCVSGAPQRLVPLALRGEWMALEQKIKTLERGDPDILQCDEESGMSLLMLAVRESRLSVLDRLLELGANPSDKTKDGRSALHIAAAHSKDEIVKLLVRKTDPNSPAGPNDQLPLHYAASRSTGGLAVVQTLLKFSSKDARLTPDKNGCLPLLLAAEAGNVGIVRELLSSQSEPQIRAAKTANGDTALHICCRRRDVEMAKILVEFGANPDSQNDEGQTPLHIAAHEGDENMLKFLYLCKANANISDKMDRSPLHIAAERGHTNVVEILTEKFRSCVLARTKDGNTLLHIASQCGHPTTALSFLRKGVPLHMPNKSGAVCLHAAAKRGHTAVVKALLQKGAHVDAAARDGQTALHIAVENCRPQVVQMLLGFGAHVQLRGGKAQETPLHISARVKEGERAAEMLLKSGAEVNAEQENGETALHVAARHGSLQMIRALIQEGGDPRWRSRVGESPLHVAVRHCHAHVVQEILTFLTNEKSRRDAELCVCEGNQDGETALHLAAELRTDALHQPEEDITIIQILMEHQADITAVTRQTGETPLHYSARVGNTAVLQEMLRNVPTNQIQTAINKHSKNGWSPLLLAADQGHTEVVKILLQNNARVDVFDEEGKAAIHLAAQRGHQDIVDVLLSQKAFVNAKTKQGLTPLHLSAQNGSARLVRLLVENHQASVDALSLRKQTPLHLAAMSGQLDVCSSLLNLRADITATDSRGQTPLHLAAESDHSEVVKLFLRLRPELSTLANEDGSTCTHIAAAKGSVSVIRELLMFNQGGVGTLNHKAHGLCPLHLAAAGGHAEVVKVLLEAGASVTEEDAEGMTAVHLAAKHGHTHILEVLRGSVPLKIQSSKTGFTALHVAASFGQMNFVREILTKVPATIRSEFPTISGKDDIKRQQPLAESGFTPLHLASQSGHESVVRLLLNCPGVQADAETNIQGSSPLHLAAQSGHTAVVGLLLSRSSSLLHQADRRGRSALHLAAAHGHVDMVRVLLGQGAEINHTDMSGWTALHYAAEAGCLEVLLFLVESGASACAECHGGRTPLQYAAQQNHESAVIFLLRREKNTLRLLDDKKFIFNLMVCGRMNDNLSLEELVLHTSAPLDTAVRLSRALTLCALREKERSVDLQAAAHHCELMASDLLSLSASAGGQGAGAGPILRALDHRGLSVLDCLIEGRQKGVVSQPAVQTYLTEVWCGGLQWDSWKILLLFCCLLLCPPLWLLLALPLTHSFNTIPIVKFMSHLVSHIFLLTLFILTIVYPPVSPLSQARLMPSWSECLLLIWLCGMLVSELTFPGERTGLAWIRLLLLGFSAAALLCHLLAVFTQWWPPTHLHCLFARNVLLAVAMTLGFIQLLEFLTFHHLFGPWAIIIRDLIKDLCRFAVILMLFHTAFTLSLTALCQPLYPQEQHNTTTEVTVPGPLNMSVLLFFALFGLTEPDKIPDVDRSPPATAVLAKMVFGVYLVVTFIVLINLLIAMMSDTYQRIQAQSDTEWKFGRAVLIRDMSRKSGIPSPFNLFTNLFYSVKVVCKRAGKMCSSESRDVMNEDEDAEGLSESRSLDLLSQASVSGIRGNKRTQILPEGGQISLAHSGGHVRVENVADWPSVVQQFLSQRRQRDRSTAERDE

[13] = target: T3, Mucolipin-3 (Homo sapiens, UniProt Q8TDD5); experiment: Dose response cell-based high-throughput screening assay for agonists of the transient receptor potential channel ML3 (TRPML3). [Related pubchem assays: 1526, 1424, 1448 ]; assay type: functional
T3 sequence (Q8TDD5 whole entry): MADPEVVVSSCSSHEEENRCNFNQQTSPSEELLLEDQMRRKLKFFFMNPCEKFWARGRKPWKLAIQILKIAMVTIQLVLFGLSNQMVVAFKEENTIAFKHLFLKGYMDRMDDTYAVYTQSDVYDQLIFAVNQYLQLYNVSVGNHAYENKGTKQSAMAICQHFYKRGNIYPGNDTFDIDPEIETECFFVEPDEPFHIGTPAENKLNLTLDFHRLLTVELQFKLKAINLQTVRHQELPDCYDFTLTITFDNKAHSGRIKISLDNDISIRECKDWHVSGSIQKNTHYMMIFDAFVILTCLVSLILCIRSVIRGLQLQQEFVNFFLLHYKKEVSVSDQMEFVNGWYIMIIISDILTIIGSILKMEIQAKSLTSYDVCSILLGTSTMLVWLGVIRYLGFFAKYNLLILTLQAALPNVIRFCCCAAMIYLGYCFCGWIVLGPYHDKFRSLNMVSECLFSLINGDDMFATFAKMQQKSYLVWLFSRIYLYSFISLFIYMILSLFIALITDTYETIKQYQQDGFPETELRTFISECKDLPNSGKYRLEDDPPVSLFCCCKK

[14] = target: Hexokinase HKDC1 (Homo sapiens, UniProt Q2TB90); experiment: inhibition of HKDC1 glucose phosphorylation – biochemical, W721R variant, dose response (AID 504729); assay type: functional
Chain of Hexokinase HKDC1 (Q2TB90 whole entry): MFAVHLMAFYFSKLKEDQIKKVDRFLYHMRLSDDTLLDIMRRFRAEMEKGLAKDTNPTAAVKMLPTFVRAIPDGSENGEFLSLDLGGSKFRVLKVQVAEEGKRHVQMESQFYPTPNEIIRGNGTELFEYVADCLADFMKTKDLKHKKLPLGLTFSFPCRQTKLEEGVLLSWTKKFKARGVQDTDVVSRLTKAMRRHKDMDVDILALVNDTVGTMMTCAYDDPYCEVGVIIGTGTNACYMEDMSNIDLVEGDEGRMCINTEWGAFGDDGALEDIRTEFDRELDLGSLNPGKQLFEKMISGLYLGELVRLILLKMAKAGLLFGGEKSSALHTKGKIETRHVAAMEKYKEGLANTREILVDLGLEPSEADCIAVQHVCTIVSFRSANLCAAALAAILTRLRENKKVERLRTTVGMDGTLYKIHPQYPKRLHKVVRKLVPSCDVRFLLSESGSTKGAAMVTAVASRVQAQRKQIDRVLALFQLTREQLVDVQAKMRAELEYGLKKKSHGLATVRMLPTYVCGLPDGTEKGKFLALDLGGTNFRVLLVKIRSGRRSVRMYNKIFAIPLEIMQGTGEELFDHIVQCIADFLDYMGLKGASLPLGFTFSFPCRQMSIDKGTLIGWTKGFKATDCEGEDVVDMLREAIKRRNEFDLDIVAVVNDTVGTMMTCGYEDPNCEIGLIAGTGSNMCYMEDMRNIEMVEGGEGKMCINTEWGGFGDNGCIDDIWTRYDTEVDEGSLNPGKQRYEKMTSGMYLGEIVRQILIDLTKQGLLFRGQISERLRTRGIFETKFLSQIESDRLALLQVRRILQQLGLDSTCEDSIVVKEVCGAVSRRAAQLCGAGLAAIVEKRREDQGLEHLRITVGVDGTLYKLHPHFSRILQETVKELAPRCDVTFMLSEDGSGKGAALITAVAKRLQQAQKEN

[15] = Trypanosoma cruzi growth suppression in host cells – NIH3T3 host cells, beta-gal luminescence, confirmation (AID 2044); assay type: functional, cell-based;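 further: intracellular parasites grown in NIH/3T3 mouse fibroblasts as host cells; luminescent beta-galactosidase reporter signal from transgenic T. cruzi replicating inside host cells; inhibitors lower the luminescence signal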
[16] = target: Beta-galactosidase (Escherichia coli, UniProt Q8VNN2); assay type: functional
Chain of Beta-galactosidase (Q8VNN2 whole entry): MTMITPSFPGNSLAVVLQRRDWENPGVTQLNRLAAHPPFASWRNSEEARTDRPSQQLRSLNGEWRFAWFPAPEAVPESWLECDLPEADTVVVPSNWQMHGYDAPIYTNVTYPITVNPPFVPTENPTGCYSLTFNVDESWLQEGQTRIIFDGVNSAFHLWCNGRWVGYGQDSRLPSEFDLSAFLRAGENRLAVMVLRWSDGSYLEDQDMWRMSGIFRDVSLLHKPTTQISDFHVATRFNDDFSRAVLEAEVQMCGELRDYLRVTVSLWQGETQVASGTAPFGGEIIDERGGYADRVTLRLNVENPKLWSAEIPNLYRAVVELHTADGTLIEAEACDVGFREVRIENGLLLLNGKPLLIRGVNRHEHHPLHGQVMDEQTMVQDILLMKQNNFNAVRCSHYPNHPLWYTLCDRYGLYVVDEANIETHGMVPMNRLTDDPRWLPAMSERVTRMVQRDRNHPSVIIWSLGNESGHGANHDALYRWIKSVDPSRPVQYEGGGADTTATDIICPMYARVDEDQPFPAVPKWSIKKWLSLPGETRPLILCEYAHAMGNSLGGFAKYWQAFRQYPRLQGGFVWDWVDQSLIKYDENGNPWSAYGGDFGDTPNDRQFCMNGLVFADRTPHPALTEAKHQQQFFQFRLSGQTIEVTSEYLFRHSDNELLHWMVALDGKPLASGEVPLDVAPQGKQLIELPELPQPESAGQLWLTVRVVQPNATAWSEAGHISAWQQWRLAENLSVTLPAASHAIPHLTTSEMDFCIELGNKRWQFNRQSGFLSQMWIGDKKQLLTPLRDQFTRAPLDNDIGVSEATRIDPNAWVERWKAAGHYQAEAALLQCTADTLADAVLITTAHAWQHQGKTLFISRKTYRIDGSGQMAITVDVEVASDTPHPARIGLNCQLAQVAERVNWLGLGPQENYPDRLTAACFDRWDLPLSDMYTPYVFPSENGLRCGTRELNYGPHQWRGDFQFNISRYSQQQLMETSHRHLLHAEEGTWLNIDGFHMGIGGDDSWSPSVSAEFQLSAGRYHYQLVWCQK

[17] = NIH3T3 cell viability loss – ATP luminescence, mouse fibroblasts, counter-screen, dose response (AID 2010); assay type: functional, cell-based;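 further: cells exposed to compound for about 90 hours before reading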
[18] = target: T4, Kappa-type opioid receptor (Homo sapiens, UniProt P41145); assay type: functional
T4 sequence (P41145 whole entry): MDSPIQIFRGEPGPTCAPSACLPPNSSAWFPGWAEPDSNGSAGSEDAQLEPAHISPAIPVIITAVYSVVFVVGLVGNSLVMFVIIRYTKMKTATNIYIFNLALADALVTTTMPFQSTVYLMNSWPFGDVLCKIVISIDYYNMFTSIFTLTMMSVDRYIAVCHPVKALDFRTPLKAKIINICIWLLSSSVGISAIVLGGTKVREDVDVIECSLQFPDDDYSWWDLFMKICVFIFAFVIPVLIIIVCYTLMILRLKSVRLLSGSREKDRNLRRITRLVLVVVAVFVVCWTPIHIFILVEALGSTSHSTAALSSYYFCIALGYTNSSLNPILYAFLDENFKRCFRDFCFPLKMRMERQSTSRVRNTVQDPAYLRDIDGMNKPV

[19] = target: T4, Kappa-type opioid receptor; assay type: functional; remark: listed apart in the source

Compound: CCN(CC)S(=O)(=O)c1cc(OC)ccc1N=Nc1ccc(O)c2ncccc12
- EC50 [1]: 0.524 µM (active)
- IC50 [2]: 15.7 µM (not active)
- IC50 [3]: 11.7 µM (active)
- EC50 [4]: > 180 µM (inactive)
- EC50 [5]: 13.5 µM (active)
- EC50 [6]: 96.3 µM (active)
- EC50 [7]: 8.84 µM (active)
- AC50 [8]: 1.27 µM (active)
- AC50 [9]: 2.41 µM (active)
- EC50 [10]: 1.61 µM (active)

Compound: Cc1ccc(OCC(=O)Nc2ccc3c(c2)OCCO3)cc1C
- EC50 [11]: > 100 µM (not active)

Compound: Cc1ccc(S(=O)(=O)Nc2cc(C(F)(F)F)ccc2N2CCOCC2)c(C)c1
- EC50 [12]: > 29.9 µM (not active)
- EC50 [13]: 2.48 µM (active)

Compound: Cc1cccc(C)c1Nc1nnc(SCc2cn3cccc(C)c3n2)s1
- IC50 [14]: > 80 µM (inactive)

Compound: Cc1ccccc1NC(=O)c1ccc(Nc2c([N+](=O)[O-])cc([N+](=O)[O-])c3ccccc23)cc1
- EC50 [15]: 0.937 µM (active)
- EC50 [16]: 11.3 µM (active)
- EC50 [17]: > 60 µM (inconclusive)
- IC50 [18]: > 32 µM
- IC50 [19]: 9.63 µM (active)
